Experiments:
Test in all cases: relative viability (nuclei count vs DMSO), 5 days (fraction); higher = more cells survive
[1] = compound: Cc1cnc(Nc2ccc(OCCN3CCCC3)cc2)nc1Nc1cccc(S(=O)(=O)NC(C)(C)C)c1 [Fedratinib] + COc1cccc2cc(-c3nc([C@H]4CC[C@H](C(=O)O)CC4)n4ncnc(N)c34)[nH]c12 [OSI-027] (partner 0.5 µM)
In short: (§1)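 Values are medians from duplicate plates. Each reflects relative viability, defined as the nuclei count of treated wells over that of vehicle wells. Lung cancer cell lines in 1536-well plates were pin-tool dosed one day after seeding with one drug alone or with a fixed anchor-drug dose plus five library-drug doses (not always all listed) in √10 steps, then fixed, stained and imaged at 4× after 5 days.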

[2] = compound: Cc1cnc(Nc2ccc(OCCN3CCCC3)cc2)nc1Nc1cccc(S(=O)(=O)NC(C)(C)C)c1 [Fedratinib] + Cc1cc(Nc2cc(N3CCN(C)CC3)nc(Sc3ccc(NC(=O)C4CC4)cc3)n2)n[nH]1 [Tozasertib] (partner 0.1 µM)
In short: as §1

[3] = compound: Cc1cnc(Nc2ccc(OCCN3CCCC3)cc2)nc1Nc1cccc(S(=O)(=O)NC(C)(C)C)c1 [Fedratinib] + O=C(c1cc(Cc2n[nH]c(=O)c3ccccc23)ccc1F)N1CCN(C(=O)C2CC2)CC1 [Olaparib] (partner 8 µM)
In short: as §1

[4] = compound: COC1=CC=C(C=C1)COC2=C(C=C(C=C2)CC3=CN=C(N=C3N)N)OC [GW-2580] + CCNC(=O)c1noc(-c2cc(C(C)C)c(O)cc2O)c1-c1ccc(CN2CCOCC2)cc1 [Luminespib] (partner 0.01 µM)
In short: as §1

[5] = compound: COC1=CC=C(C=C1)COC2=C(C=C(C=C2)CC3=CN=C(N=C3N)N)OC [GW-2580] + CS(=O)(=O)CCNCc1ccc(-c2ccc3ncnc(Nc4ccc(OCc5cccc(F)c5)c(Cl)c4)c3c2)o1 [Lapatinib] (partner 2 µM)
In short: as §1

[6] = compound: Cc1cnc(Nc2ccc(OCCN3CCCC3)cc2)nc1Nc1cccc(S(=O)(=O)NC(C)(C)C)c1 [Fedratinib] + Cc1nc(NC(=O)N2CCC[C@H]2C(N)=O)sc1-c1ccnc(C(C)(C)C(F)(F)F)c1 [Alpelisib] (partner 2 µM)
In short: as §1

Cell Line | relative viability ([1]; first compound 0.1 µM) | relative viability ([1]; first compound 0.3162 µM) | relative viability ([1]; first compound 1 µM) | relative viability ([2]; first compound 0.1 µM) | relative viability ([2]; first compound 0.3162 µM) | relative viability ([2]; first compound 1 µM) | relative viability ([3]; first compound 0.1 µM) | relative viability ([3]; first compound 0.3162 µM) | relative viability ([3]; first compound 1 µM) | relative viability ([4]; first compound 0.08 µM) | relative viability ([4]; first compound 0.8 µM) | relative viability ([4]; first compound 2.53 µM) | relative viability ([4]; first compound 8 µM) | relative viability ([5]; first compound 0.08 µM) | relative viability ([5]; first compound 0.8 µM) | relative viability ([5]; first compound 2.53 µM) | relative viability ([5]; first compound 8 µM) | relative viability ([6]; first compound 0.1 µM) | relative viability ([6]; first compound 0.3162 µM) | relative viability ([6]; first compound 1 µM)
NCI-H1648 | 0.221 | 0.263 | 0.269 | 0.409 | 0.567 | 0.422 | 0.655 | 0.59 | 0.691 | – | – | – | – | – | – | – | – | – | – | –
NCI-H1650 | – | 0.69 | 0.515 | – | 0.408 | 0.335 | 0.835 | 0.726 | 0.674 | 0.195 | 0.195 | 0.197 | 0.182 | 0.822 | 0.895 | 0.677 | 0.781 | – | – | –
NCI-H1703 | – | – | – | – | – | – | – | 0.359 | 0.291 | – | – | – | – | 1.1 | 1.32 | 1.2 | 0.946 | 0.161 | 0.361 | 0.25
NCI-H1792 | 0.607 | 0.808 | 0.748 | – | – | – | 0.599 | 0.402 | 0.282 | 0.503 | 0.444 | 0.567 | 0.411 | 0.936 | 1.1 | 0.484 | 1.1 | 0.458 | 0.662 | 0.666
NCI-H2342 | 0.615 | 0.65 | 0.559 | 0.51 | 0.713 | 0.695 | 0.462 | 0.456 | 0.472 | 0.788 | 0.77 | 0.859 | 0.714 | – | – | – | – | – | – | –
SW 900 | 0.522 | 0.539 | 0.35 | 0.358 | 0.502 | 0.434 | 0.95 | 0.887 | 0.695 | 0.17 | 0.182 | 0.161 | 0.146 | – | – | – | – | – | – | –
